Test [1] addresses T1, MC1-R (Mus musculus, UniProt Q01727).
T1 construct: B-16 mouse melanoma cells (containing MC1-R); endogenous in cells
Briefly: Competitive inhibition assay using [I^125]-NDP-α-MSH, B-16 mouse melanoma cell membranes. Type of test: binding. The note with it: for inhibition at 1 µM: 1 μM test compound, read-out: Inhibition at 1 μM (NDP-α-MSH) In Normal System, MC1-R; for Ki: read-out: Ki (nM) (NDP-α-MSH) In Normal System, MC1-R. A digest of the protocol:
(§1)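 Tracer was 0.4 nM for MC3-R and MC5-R, 0.2 nM for MC4-R and 0.1 nM for MC1-R. Bound radioactivity was gamma-counted after filtration; values are triplicate means, with results below 0% reported as 0%.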

Test [2] concerns the target T1, MC1-R. Briefly: cAMP functional activity assay in B-16 mouse melanoma cells. Type of test: cell-based. The conditions noted are these: 1 μM concentration where stated. As to the method:
(§2) General method for EC50 determination in functional activity assay. […] Data analysis and EC50 values were determined using nonlinear regression analysis with Prism Graph-Pad software.
(§3) Functional status. The agonist/antagonist status with respect to MC1-R, MC-3R, MC4-R and MC5-R of certain compounds of the invention was determined. Antagonistic activity was determined by measuring the inhibition of α-MSH-induced or NDP-α-MSH-induced cAMP levels following exposure to graded doses of compounds as in the preceding descriptions.

The nature of test [3]: Penile erection induction in male rats. The format is in vivo. The note with it: rat. A digest of the protocol:
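Male Sprague-Dawley rats (200-250 g), groups of 4-8, dosed IV or ICV at various doses and observed individually for penile erections. Only statistically relevant increases over vehicle-control mean PEs count as induction; IV responses below 1.0 PEs/rat treated as equivocal, some retested ICV.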

Test [4] can be described thus: IV and IP food intake and body weight change, rats. The conditions noted are these: rat, IV, 10 mg/kg, 24 hours. The format is in vivo. As to the method:
(§4) IV and IP food intake and body weight change. Change in food intake and body weight was evaluated for selected compounds. Male Sprague-Dawley rats or male C57BL/6 mice were utilized. Animals were individually housed in conventional plexiglass hanging cages and maintained on a controlled 12 hour on/off light cycle. Water and powdered (LabDiet, 5P00 Prolab RMH 3000) or pelleted (Harlan Teklad 2018 18% Protein Rodent Diet) food was provided ad libitum. For 1 week before treatment, 24-hour food intake and body weight change was recorded to assess a baseline for the group during vehicle treatment. The rats were dosed IV with vehicle or selected compounds (0.5-3 mg/kg, and in some cases up to 10 mg/Kg) or dosed intraperitoneally (IP) with vehicle or selected compounds (0.5-10 mg/kg, and in some cases up to 50 mg/kg). Mice were dosed IP. The changes in body weight and food intake for the 24 hour period after dosing were determined. The changes in body weight and food intake for the 48 hour and 72 hour periods after dosing were also measured to determined reversal of changes in body weight and food intake effects back to baseline levels.

Test [5] can be described thus: IP (and IN) food intake, mice. The format is in vivo. The conditions noted are these: mouse, IP, 4 hours. As to the method:
as §4, with “The changes in body weight and food intake for the 24 hour period after dosing were determined.” left out

The target of test [6] is T2, MC3-R (Homo sapiens, UniProt P41968). The experiment in a line: Competitive inhibition assay using [I^125]-NDP-α-MSH, hMC3-R membranes. Type of test: binding. Also noted: expressed in transfected cells. The conditions noted are these: 1 μM test compound; read-out: Inhibition at 1 μM (NDP-α-MSH) In Normal System, MC3-R. A digest of the protocol:
as §1

Test [7] has as its target T3, MC5-R (Homo sapiens, UniProt P33032). The experiment in a line: Competitive inhibition assay using [I^125]-NDP-α-MSH, hMC5-R membranes. Type of test: binding. More on the design: expressed in transfected cells. The note with it: 1 μM test compound; read-out: Inhibition at 1 μM (NDP-α-MSH) In Normal System, MC5-R. The essentials:
as §1

The target of test [8] is T4, MC4-R (Homo sapiens, UniProt P32245). Briefly: cAMP functional activity assay in HEK-293 cells, normal system. Type of test: cell-based. Also noted: expressed in transfected cells; host or cells: HEK-293. The note with it: for intrinsic activity at MC4-R in a normal system: normal receptor density system, NDP-α-MSH = 1.0; for functional status at MC4-R in cAMP assay: normal system, 1 μM concentration where stated. In general terms: Changes in cAMP serve as a functional read-out for many G protein-coupled receptors.

Test [9] has as its target T2, MC3-R. The experiment in a line: cAMP functional activity assay in HEK-293 cells. The format is cell-based. Also noted: expressed in transfected cells; host or cells: HEK-293. The conditions noted are these: 1 μM concentration where stated. As to the method:
as §2, §3

Test [10] addresses T3, MC5-R. The experiment in a line: cAMP functional activity assay in HEK-293 cells. The conditions noted are these: 1 μM concentration where stated. Type of test: cell-based. Also noted: expressed in transfected cells; host or cells: HEK-293. As for the experimental part:
as §2, §3

Test [11] addresses T4, MC4-R. The experiment in a line: Competitive inhibition assay using [I^125]-NDP-α-MSH, hMC4-R membranes. The note with it: 1 μM test compound; read-out: Inhibition at 1 μM (NDP-α-MSH) In Normal System, MC4-R. Also noted: host or cells: TREx-293 (HEK-293 stably expressing Tet repressor). Type of test: binding. The essentials:
as §1

In test [12] the target is T4, MC4-R. The experiment in a line: cAMP agonist stimulation, low receptor density system (0.1 ng/mL doxycycline). The note with it: for Efficacy/Intrinsic Activity: 0.1 ng/mL doxycycline, low receptor density hMC4-R system, NDP-α-MSH maximal cAMP = 1.0.
The target in test [13] is T4, MC4-R. The experiment in a line: cAMP agonist stimulation, high receptor density system (10 ng/mL doxycycline). The conditions noted are these: for Efficacy/Intrinsic Activity: 10 ng/mL doxycycline, high receptor density hMC4-R system, NDP-α-MSH maximal cAMP = 1.0.
Test [14] in a line: ICV food intake and body weight change. The conditions noted are these: rat, 1 nmol, 24 hours. The format is in vivo. The essentials:
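Rats fitted with intracerebroventricular cannulas and fed ad libitum got a single ICV dose of vehicle or compound (1-3 nmol). Food intake and body-weight change over the 24 h after dosing were compared with a 1-week vehicle baseline. Values at 48 h and 72 h were also recorded to follow return to baseline.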

Test [15] concerns the target T4, MC4-R. Briefly: Assay for neutral antagonist, Schild analysis (pA2) against NDP-α-MSH. The format is cell-based. Also noted: expressed in transfected cells; host or cells: HEK-293. The note with it: Schild analysis vs NDP-α-MSH. As for the experimental part:
Assay for Neutral Antagonist. […] These studies were carried out in HEK-293 cells expressing the MC4-R receptor. Cells were incubated with the compounds in the presence of the agonist NDP-α-MSH and the extent of antagonism was measured by the decrease in the level of intracellular cAMP. Screening the compounds for antagonists was done at a single concentration of NDP-α-MSH (1.0 nM) over a compound concentration range of 0.5-5000 nM.
Experimental details were similar to the analysis for agonistic activity described above. Briefly, cells were pre-incubated for 30 minutes with the test compounds at concentrations between 0.5 nM and 5000 nM. The cells were then stimulated with NDP-α-MSH at a concentration of 1 nM for 1 hour. For Schild analysis, the interactions were studied using at least 3 concentrations of the compounds, separated by a log unit, over a full range of the agonist (0.005-5000 nM). cAMP levels was measured in the cell lysates after appropriate dilution. Nonlinear regression analysis with Prism Graph-Pad software was used for Schild analysis and to obtain EC50 values. pA2 values were derived from the Schild plot of the data.

The values below come from US20090081197A1 (Palatin Technologies, Inc., priority 2007, published 2009).

T3 sequence (P33032 whole entry): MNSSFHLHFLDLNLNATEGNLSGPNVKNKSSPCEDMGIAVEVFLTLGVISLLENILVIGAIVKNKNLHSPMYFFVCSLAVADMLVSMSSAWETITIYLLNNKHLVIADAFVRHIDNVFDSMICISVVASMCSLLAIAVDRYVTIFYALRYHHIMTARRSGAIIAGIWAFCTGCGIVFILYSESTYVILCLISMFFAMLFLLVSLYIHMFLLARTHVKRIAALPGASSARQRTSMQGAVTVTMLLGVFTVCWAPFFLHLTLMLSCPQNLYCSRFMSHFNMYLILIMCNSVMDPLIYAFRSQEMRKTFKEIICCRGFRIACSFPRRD
T1 sequence (Q01727 whole entry): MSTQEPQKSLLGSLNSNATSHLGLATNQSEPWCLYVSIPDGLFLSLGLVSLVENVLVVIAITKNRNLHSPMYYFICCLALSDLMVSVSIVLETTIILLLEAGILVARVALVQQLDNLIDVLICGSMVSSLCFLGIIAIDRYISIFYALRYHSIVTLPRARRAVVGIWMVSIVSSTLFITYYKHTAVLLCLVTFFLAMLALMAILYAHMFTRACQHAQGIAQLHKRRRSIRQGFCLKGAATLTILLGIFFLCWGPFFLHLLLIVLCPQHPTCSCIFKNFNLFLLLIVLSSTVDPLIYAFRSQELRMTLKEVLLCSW
T2 sequence (P41968 whole entry): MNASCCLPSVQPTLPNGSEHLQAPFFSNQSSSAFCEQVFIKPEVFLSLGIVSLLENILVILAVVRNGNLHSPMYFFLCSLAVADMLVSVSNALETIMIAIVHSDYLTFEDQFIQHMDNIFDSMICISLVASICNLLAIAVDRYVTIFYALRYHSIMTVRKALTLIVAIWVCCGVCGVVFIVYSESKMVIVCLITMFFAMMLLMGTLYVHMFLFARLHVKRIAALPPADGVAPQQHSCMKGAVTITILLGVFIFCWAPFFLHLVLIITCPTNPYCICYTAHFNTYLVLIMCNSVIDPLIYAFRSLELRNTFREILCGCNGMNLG
T4 sequence (P32245 whole entry): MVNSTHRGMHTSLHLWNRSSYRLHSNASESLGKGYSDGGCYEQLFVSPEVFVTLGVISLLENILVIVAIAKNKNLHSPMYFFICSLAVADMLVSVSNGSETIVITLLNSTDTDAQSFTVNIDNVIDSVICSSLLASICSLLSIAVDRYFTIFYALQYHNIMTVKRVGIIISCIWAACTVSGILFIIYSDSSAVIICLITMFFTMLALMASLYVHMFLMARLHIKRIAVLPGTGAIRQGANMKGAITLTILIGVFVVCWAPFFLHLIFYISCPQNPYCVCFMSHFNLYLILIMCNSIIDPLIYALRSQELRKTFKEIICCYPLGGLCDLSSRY

Regarding `Cc1cc(Cl)ccc1C[C@@H](N)C(=O)N1C[C@@H](C)N(C(=O)Cc2ccc3ccccc3c2)C[C@@H]1CCCNC(=N)N` [Example 10, N-{3-[1-[2(R)-Amino-3-(4-chloro-2-dimethyl-phenyl)-propionyl]-5(R)-methyl(2-naphthalen-2-yl-acetyl)-piperazin-2(S)-yl]-propyl}-guanidine], the inhibition (commonly the change of the read-out against control, counted positive when it falls) at 1 µM in [1] is 3%; in [6], 34%; in test [7] it was 36%; in [11], 96%. Moreover, in test [1], the Ki (commonly a measure of affinity in units of concentration, obtained from inhibition or displacement) is 462 nM. Besides, the “functional status at MC1-R in cAMP assay” value in test [2] was “partial agonist (intrinsic activity between 0.1 (10%) and 0.7 (70%) is classified as a partial agonist)”. Moreover, in test [3] (IV), the “Penile Erection IV” value is “Yes*”. For the same molecule, in [3] (IV, 0.3 to 30 μg/kg), the animals responding entry is “not more than 66%”. Also, the “maximal decrease in food intake” value in [4] is 33%; in test [5] (10 mg/kg), 27%. Besides, the “intrinsic activity at MC4-R in a normal system” value in test [8] stood at 0.9. In addition, the “functional status at MC4-R in cAMP assay” value in test [8] is given as “agonist (intrinsic activity of 0.7 (70%) or higher is classified as an agonist)”. Further, the “functional status at MC3-R in cAMP assay” value in test [9] was “partial agonist (intrinsic activity between 0.1 (10%) and 0.7 (70%) is classified as a partial agonist)”. Also, in test [10], the “functional status at MC5-R in cAMP assay” value is reported as “agonist (intrinsic activity of 0.7 (70%) or higher is classified as an agonist)”. For the same molecule, the results for the EC50 in [12] and in test [13] were 38 nM and 26 nM, respectively. Further, the results for the “Efficacy/Intrinsic Activity” value in [12] and in [13] were 0.23 and 0.69, respectively.

Take `Cc1cc(Cl)ccc1C[C@@H](N)C(=O)N1C[C@@H](C)N(CCc2c[nH]c3ccccc23)C[C@@H]1CCCNC(=N)N` [Example 9, N-(3-{1-(2(R)-Amino-(4-chloro-2-methyl-phenyl)-propionyl)-5(R)-methyl-4-[2-(1H-indol-3-yl)-ethyl]-piperazin-2(S)-yl}-propyl)-guanidine]: the inhibition at 1 µM came to 40% in test [1], 74% in test [6], 75% in [7] and 98% in test [11]. Besides, the Ki in [1] came out at 1730 nM. Further, the “functional status at MC1-R in cAMP assay” value in [2] is “no intrinsic activity (intrinsic activity below 0.1 (10%) is classified as inactive or having no intrinsic activity)”. Further, the “Penile Erection ICV” value in [3] (ICV) was “No”. Further, the penile erection response result in test [3] (ICV, 0.01 to 10 nmol) is recorded as “no penile erection response”; in [3] (IV, 0.3 to 30 μg/kg), “no penile erection response”. Besides, the “Penile Erection IV” value in test [3] (IV) is “No”. In test [14], the “decrease in body weight” value is 2%. Further, the “decrease in food intake” value in [14] is recorded as 16%. Moreover, the “maximal decrease in food intake” value in [5] (3 mg/kg) is reported as 10%. For the same molecule, the “intrinsic activity at MC4-R in a normal system” value in [8] amounted to 1. For the same molecule, the “functional status at MC4-R in cAMP assay” value in test [8] is “full agonist”. Also, the “functional status at MC3-R in cAMP assay” value in test [9] was “no intrinsic activity (intrinsic activity below 0.1 (10%) is classified as inactive or having no intrinsic activity)”. Moreover, the “functional status at MC5-R in cAMP assay” value in test [10] was “no intrinsic activity (intrinsic activity below 0.1 (10%) is classified as inactive or having no intrinsic activity)”. Besides, the “Efficacy/Intrinsic Activity” value in test [12] was “None”; in test [13], 0.73. Further, the EC50 (usually the concentration giving half of the maximal effect) in test [13] amounted to 22 nM.

`N=C(N)NCCC[C@H]1C(=O)N2C(CC[C@@H]2COc2ccc3ccccc3c2)N1C(=O)[C@@H](Cc1ccc(Cl)cc1Cl)NC(=O)[C@@H]1Cc2ccccc2CN1` (stereo partly drawn) [Example 22, (S)-1,2,3,4-Tetrahydro-isoquinoline-3-carboxylic acid {(R)-1-(2,4-dichloro-benzyl)-2-[(2S,5R)-2-(3-guanidino-propyl)-5-(naphthalen-2-yloxymethyl)-3-oxo-hexahydro-pyrrolo[1,2-a]imidazol-1-yl]-2-oxo-ethyl}-amide]: the inhibition at 1 µM was 75% in test [1], 88% in [6], 96% in test [7] and 100% in test [11]. Besides, the Ki in test [1] stood at 111 nM. Further, the “Penile Erection IV” value in test [3] (IV) was “No”. For the same molecule, the penile erection response result in [3] (IV) is recorded as “no penile erection response”. Besides, the “decrease in food intake” value in [14] is reported as 22%. Also, the “functional status at MC4-R in cAMP assay” value in test [8] is “antagonist”. Moreover, the Kb in test [15] (read-out: pA2 value as antagonist at MC4-R in a normal system (converted)) is 7.94 nM. Also, the results for the “Efficacy/Intrinsic Activity” value in test [12] and in test [13] were “None” and 0.30, respectively. Further, in test [13], the EC50 was found to be 64 nM.

For “N-{3-[1-[2(R)-Amino-3-(2-methyl, 4-chloro-phenyl)-propionyl]-5(R)-methyl-4-(2-naphthalen-2-yl-ethyl)-piperazin-2(S)-yl]-propyl}-guanidine [Example 26]”, the “functional status at MC4-R in cAMP assay” value in test [8] was “no intrinsic activity (intrinsic activity below 0.1 (10%) is classified as inactive or having no intrinsic activity)”. The “pA2 value as antagonist at MC4-R in a normal system” value in test [15] stood at 8.3.
